In patent publication US10815235B2, “Polycyclic compounds and uses thereof” (priority 2017, dated 2020):
Read-outs that look alike come from different tables or passages of the source.

Legend:
[1] = target: T1, Serotonin 5-HT1F receptor (Homo sapiens, UniProt P30939); assay: GTPγS Scintillation Proximity Assay, agonist and antagonist mode; type: biochemical
T1 sequence (P30939 1-366): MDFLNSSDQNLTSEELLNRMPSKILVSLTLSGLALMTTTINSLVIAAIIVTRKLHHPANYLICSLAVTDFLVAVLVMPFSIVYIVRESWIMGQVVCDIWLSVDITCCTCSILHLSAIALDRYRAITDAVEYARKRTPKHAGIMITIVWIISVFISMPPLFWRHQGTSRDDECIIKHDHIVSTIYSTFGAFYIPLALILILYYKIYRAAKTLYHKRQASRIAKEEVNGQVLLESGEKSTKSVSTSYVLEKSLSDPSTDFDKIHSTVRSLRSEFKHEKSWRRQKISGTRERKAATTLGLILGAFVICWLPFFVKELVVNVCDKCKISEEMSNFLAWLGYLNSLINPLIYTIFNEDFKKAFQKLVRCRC
Description: (§1) Antagonist and agonist activities were determined using a GTPγS Scintillation Proximity Assay. The assay was prepared as follows: Membrane extracts were prepared from recombinant human Dopamine D2L, D3; Serotonin 5-HT1A, 5-HT1B, 5-HT1D and 5-HT1F receptors.
(§2) Samples were tested by proprietary biological assays by Ogeda S. A., Euroscreen FAST Business Unit, Rue Adrienne Bolland, 47 B-6041 Gosselies, Belgium. Each protein assay was prepared using the following conditions.
5-HT1F • Assay buffer: 20 mM HEPES pH 7.4; 100 mM NaCl, 10 μg/ml saponin, 1 mM MgCl2; • Membranes: recombinant 5-HT1F membrane extracts thawed on ice and diluted in assay buffer to give 0.5 mg/ml (5 μg/well) and kept on ice; • GDP: diluted in assay buffer to give a 3 μM final assay concentration; • Beads: PVT-WGA (Perkin Elmer, RPNQ001), diluted in assay buffer at 50 mg/ml (0.5 mg/well); and • GTPγ^35S: (PerkinElmer NEG030X), diluted in assay buffer to give 0.1 nM.
Membranes were mixed with GDP (volume:volume 1:1) and incubated for at least 15 min on ice. […]
The plates were covered with a top seal, mixed on an orbital shaker for 2 min, and then incubated for 1 hour at room temperature. Then the plates were centrifuged for 10 min at 2000 rpm, incubated at room temperature 1 hour and counted for 1 min/well with a PerkinElmer TopCount reader. […]

[2] = target: T2, Serotonin 5-HT1A receptor (Homo sapiens, UniProt P08908); assay: as above; type: biochemical
T2 sequence (P08908 1-422): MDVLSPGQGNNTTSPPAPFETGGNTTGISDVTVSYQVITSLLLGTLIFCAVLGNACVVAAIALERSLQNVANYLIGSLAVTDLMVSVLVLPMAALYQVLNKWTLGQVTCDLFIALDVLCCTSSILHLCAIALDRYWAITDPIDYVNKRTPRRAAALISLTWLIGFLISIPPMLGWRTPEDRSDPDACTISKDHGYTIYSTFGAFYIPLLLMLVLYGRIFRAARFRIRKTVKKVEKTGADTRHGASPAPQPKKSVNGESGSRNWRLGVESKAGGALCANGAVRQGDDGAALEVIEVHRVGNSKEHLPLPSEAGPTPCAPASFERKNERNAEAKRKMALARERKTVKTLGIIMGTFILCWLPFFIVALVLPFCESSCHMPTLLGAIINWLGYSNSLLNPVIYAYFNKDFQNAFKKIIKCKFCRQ
Description: as §1, §2
5-HT1A • Assay buffer: 20 mM HEPES pH 7.4; 100 mM NaCl, 10 μg/ml saponin, 3 mM MgCl2, 0.1% protease-free BSA; • Membranes: recombinant 5-HT1A membrane extracts thawed on ice and diluted in assay buffer to give 1 mg/ml (10 μg/well) and kept on ice; • GDP: diluted in assay buffer to give a 3 μM final assay concentration; • Beads: PVT-WGA (Perkin Elmer, RPNQ001), diluted in assay buffer at 50 mg/ml (0.5 mg/well); and • GTPγ^35S: (PerkinElmer NEG030X), diluted in assay buffer to give 0.1 nM;
Membranes were mixed with GDP (volume:volume 1:1) and incubated for at least 15 min on ice. In parallel, GTPγ[^35S] is mixed with the beads (volume:volume 1:1) just before starting the reaction.
To determine agonist activity, the following reagents were added in the wells of an Optiplate (Perkin Elmer): 50 μL of test or reference ligand, 10 μL of assay buffer, 20 μl of the membranes:GDP mix, and 20 μL of the GTPγ[^35S]:beads mix. EC50 values were used to determine whether a compound acted as an agonist.
To determine antagonist activity, the following reagents were added in the wells of an Optiplate (Perkin Elmer): 50 μL of test or reference ligand, 20 μL of the membranes:GDP mix, then the plate is incubated 15 minutes at room temperature. After incubation, 10 μL of reference agonist at historical EC80 (final concentration) was added, followed by 20 μL of the GTPγ[^35S]:beads mix.
The plates were covered with a top seal, mixed on an orbital shaker for 2 min, and then incubated for 1 hour at room temperature. Then the plates were centrifuged for 10 min at 2000 rpm, incubated at room temperature 1 hour and counted for 1 min/well with a PerkinElmer TopCount reader. IC50 values were used to determine whether a compound acted as an antagonist.

[3] = antagonist mode, bound stated, read-out: IC50 value for the Serotonin 5-HT1A receptor
[4] = membrane extracts, vs reference agonist at EC80, read-out: Antagonist Activity (IC50), 5-HT1A

Structure (SMILES) | EC50 ([1]; agonist mode, bound stated, read-out: EC50 value for the Serotonin 5-HT1F receptor) | EC50 ([1]; membrane extracts, read-out: Agonist Activity (EC50), 5-HT1F) | EC50 ([2]; agonist mode, bound stated, read-out: EC50 value for the Serotonin 5-HT1A receptor) | IC50 [2, 3] | IC50 [2, 4] | EC50 ([2]; membrane extracts, read-out: Agonist Activity (EC50), 5-HT1A)
CC[C@@H](CO)NC(=O)[C@@H]1C[C@@H]2c3cccc4c3c(c(C3CC3)n4C)C[C@H]2N(C)C1 [Compound D13H, (6aR,9R,10aR)-5-cyclopropyl-N—((S)-1-hydroxybutan-2-yl)-4,7-dimethyl-4,6,6a,7,8,9,10,10a-octahydroindolo[4,3-fg]quinoline-9-carboxamide] | < 1000 nM | 260 nM |  |  |  | 
CCN(CC)C(=O)N[C@H]1C[C@@H]2c3cccc4[nH]c(Br)c(c34)C[C@H]2N(C)C1 [Compound A8H, 3-((6aR,9S, 10aR)-5-bromo-7-methyl-4,6,6a,7,8,9,10,10a-octahydroindolo[4,3-fg]quinolin-9-yl)-1,1-diethylurea] |  |  | < 1000 nM | < 1000 nM | 160 nM | 31 nM
CCN(CC(F)(F)F)C(=O)N[C@H]1C[C@@H]2c3cccc4[nH]c(C5CC5)c(c34)C[C@H]2N(C)C1 [Compound A17H, 3-((6aR,9S,10aR)-5-cyclopropyl-7-methyl-4,6,6a,7,8,9,10,10a-octahydroindolo[4,3-fg]quinolin-9-yl)-1-ethyl-1-(2,2,2-trifluoroethyl)urea] |  |  |  | < 1000 nM | 590 nM | 
